Here are results for five molecules from article PMC6019134, “1,2,6-Thiadiazinones as Novel Narrow Spectrum Calcium/Calmodulin-Dependent Protein Kinase Kinase 2 (CaMKK2) Inhibitors” (Molecules : A Journal of Synthetic Chemistry and Natural …, 2018).

Holding throughout (assay): DSF thermal shift, kinase panel
Holding throughout (assay type): binding
Conditions in all cases: 10 μM compound

One assay deals with T1, BRAFA (Homo sapiens, UniProt P15056).
T1 construct: purchased in-house (home-made panel, SGC-style construct names)
The gist of the method:
(§1)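 Read-out is melting temperature shift (dTm), derived by Boltzmann fitting of fluorescence melt curves and referenced to protein/dye with 0.2% DMSO. Kinase 1 µM, compound 10 µM, phosphate buffer pH 7.5 with NaCl and glycerol; ramp 25→95 °C at 0.05 °C/s.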

A further assay concerns the target T2, DYRK2A (Homo sapiens, UniProt Q92630).
T2 construct: purchased in-house (home-made panel, SGC-style construct names)
T2 sequence (Q92630 1-601): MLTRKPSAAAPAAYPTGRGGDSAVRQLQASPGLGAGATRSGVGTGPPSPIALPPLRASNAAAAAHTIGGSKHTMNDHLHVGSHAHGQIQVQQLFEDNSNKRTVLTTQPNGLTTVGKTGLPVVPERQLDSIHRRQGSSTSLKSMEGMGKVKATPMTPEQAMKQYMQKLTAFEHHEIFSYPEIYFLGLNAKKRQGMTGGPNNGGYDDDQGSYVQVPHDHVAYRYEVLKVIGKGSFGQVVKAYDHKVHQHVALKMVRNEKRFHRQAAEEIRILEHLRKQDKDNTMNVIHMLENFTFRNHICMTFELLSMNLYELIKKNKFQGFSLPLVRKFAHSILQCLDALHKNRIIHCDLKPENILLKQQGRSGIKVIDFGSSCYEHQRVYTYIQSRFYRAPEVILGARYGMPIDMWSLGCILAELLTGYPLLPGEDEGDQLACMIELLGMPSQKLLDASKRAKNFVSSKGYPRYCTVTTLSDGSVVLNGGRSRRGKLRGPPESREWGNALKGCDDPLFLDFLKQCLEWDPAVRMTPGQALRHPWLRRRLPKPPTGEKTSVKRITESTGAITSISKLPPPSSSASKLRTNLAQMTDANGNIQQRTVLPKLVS
Put shortly:
as §1

Another assay addresses T3, MAPK14B (Homo sapiens, UniProt Q16539).
T3 construct: purchased in-house (home-made panel, SGC-style construct names)
The gist of the method: as §1

A further assay deals with T4, STK38LA (Homo sapiens, UniProt Q9Y2H1).
T4 construct: TEV-cleavable (cleaved yes); made in house; host or cells: E. coli
The gist of the method:
as §1

For a further assay, the target named is T5, TTKA (Homo sapiens, UniProt P33981).
T5 construct: TEV-cleavable (cleaved yes); made in house; host or cells: E. coli
T5 sequence (P33981 1-857): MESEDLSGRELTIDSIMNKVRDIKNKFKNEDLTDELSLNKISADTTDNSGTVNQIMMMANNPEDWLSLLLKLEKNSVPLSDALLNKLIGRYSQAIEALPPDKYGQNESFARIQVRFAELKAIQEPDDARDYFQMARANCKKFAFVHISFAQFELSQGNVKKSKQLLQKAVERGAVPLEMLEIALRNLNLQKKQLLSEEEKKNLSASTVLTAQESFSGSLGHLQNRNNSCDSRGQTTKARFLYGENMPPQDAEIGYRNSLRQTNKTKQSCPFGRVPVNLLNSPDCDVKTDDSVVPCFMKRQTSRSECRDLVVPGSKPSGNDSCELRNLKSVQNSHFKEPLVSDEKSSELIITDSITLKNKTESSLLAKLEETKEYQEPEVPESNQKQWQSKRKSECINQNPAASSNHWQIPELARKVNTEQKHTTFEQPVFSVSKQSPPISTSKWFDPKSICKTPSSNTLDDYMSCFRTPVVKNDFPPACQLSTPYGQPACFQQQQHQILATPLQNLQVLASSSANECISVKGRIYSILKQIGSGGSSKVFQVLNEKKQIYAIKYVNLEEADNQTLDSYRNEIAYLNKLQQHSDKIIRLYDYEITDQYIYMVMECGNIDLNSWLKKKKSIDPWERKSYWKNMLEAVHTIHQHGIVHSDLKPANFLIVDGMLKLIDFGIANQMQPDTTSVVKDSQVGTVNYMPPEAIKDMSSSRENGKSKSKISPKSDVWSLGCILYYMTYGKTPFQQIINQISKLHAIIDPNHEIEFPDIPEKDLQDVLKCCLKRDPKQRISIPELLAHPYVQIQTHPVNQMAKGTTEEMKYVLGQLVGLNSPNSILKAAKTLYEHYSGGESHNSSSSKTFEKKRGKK
Put shortly: as §1

T4 sequence (Q9Y2H1 whole entry): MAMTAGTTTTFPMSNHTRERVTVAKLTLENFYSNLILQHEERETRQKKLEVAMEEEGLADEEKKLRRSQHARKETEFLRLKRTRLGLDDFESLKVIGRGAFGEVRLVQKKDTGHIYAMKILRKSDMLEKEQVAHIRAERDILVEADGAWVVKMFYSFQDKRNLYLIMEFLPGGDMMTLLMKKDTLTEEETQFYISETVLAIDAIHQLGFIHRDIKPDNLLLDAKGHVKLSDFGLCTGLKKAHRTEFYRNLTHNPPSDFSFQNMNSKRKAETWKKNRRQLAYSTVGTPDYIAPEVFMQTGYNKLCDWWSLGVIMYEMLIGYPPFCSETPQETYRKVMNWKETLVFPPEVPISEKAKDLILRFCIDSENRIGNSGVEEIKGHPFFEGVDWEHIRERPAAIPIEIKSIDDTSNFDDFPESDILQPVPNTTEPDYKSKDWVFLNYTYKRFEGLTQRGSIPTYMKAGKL
T3 sequence (Q16539 whole entry): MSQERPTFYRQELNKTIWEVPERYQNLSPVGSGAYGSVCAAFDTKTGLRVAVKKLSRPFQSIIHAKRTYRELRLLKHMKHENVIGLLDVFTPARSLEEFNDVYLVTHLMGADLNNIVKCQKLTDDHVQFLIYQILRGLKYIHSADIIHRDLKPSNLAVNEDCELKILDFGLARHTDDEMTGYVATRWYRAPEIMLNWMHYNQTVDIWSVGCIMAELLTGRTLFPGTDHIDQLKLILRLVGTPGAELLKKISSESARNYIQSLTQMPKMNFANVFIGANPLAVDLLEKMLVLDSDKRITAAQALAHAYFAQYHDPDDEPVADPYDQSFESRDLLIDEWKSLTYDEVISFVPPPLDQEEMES
T1 sequence (P15056 whole entry): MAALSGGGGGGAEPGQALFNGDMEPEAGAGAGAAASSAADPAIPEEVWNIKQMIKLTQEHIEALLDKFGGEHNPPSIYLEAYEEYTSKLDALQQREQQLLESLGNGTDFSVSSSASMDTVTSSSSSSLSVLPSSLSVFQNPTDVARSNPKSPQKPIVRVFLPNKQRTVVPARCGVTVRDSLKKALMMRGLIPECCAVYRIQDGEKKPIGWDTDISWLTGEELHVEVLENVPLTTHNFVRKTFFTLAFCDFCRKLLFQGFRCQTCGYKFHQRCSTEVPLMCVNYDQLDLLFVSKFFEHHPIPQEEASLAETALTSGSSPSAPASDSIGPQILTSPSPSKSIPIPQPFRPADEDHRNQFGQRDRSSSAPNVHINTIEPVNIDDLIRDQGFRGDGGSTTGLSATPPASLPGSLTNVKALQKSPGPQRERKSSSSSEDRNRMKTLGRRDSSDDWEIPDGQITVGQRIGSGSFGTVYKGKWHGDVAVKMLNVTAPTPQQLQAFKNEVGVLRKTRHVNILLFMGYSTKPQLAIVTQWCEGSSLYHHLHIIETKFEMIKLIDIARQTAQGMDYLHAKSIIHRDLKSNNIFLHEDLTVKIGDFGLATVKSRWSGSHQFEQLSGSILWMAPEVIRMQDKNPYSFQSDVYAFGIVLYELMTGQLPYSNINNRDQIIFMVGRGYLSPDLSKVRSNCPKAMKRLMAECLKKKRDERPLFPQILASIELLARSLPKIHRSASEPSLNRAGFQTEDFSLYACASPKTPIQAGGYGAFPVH

As a reminder, the ΔTm is the change in melting temperature against a reference sample. For `CNC(=O)c1ccccc1Nc1nsnc(Nc2cccc(CS(C)(=O)=O)c2)c1=O` [Compound 4, N-Methyl-2-([5-({3-[(methylsulfonyl)methyl]phenyl}amino)-4-oxo-4H-1,2,6-thiadiazin-3-yl]-amino}-benzamide], the ΔTm at 10 µM at BRAFA is 0.1 °C; on DYRK2A it was 0.1 °C; on MAPK14B it was -0.2 °C; at STK38LA, 0.4 °C; on TTKA, 0.3 °C.
As to `CNC(=O)c1ccccc1Nc1nsnc(Nc2ccc(N3CCOCC3)cc2)c1=O` [Compound 5, N-Methyl-2-({5-[(4-morpholinophenyl)amino]-4-oxo-4H-1,2,6-thiadiazin-3-yl}amino)benzamide], the shift in melting temperature (ΔTm) at 10 µM on BRAFA is 0.4 °C; at DYRK2A, 0.1 °C; at MAPK14B, -0.3 °C; on STK38LA it was 0.3 °C; on TTKA, 0.1 °C.
Consider `Cc1ccc(Nc2nsnc(Nc3cccc(C(N)=O)c3)c2=O)cc1O` [Compound 1, 3-({5-[(3-Hydroxy-4-methylphenyl)amino]-4-oxo-4H-1,2,6-thiadiazin-3-yl}amino)benzamide], for which the ΔTm at 10 µM was -0.1 °C at BRAFA; 0.1 °C on DYRK2A; 0 °C on MAPK14B; 0.2 °C at STK38LA; 0.8 °C on TTKA.
As to `Cc1ccc(Nc2nsnc(Nc3ccc(C(N)=O)cc3)c2=O)cc1O` [Compound 2, 4-({5-[(3-Hydroxy-4-methylphenyl)amino]-4-oxo-4H-1,2,6-thiadiazin-3-yl}amino)benzamide], the ΔTm at 10 µM on BRAFA amounted to 0.2 °C; at DYRK2A it was 2.4 °C; on MAPK14B it was 0.6 °C; on STK38LA it was 0.4 °C; on TTKA, 2.6 °C.
The matching figures for `Cc1ccc(Nc2nsnc(Nc3ccc4c(c3)CS(=O)(=O)C4)c2=O)cc1O` [Compound 3, 3-[(2,2-Dioxido-1,3-dihydrobenzo[c]thiophen-5-yl)amino]-5-[(3-hydroxy-4-methylphenyl)amino]-4H-1,2,6-thiadiazin-4-one]: 0.7 °C, 0.7 °C, 1 °C, 0.8 °C and 2.1 °C.
